Experimental data as given in patent US11078213B2, “Thienopyrimidine compound, preparation method thereof, pharmaceutical composition and application thereof” (HONGYUN BIOTECH CO., LTD., priority 2016, dated 2021).

Target: T1, EML4-ALK-BaF3 (Homo sapiens, UniProt Q9UM73)
T1 construct: EML4 (echinoderm microtubule associated protein like 4, Q9HC35) fusion partner; expressed in transfected cells; host or cells: BaF3; the other entry of the earlier key: EML4 (Q9HC35, Echinoderm microtubule-associated protein-like 4)
T1 sequence (Q9UM73 1058-1620 limits assumed): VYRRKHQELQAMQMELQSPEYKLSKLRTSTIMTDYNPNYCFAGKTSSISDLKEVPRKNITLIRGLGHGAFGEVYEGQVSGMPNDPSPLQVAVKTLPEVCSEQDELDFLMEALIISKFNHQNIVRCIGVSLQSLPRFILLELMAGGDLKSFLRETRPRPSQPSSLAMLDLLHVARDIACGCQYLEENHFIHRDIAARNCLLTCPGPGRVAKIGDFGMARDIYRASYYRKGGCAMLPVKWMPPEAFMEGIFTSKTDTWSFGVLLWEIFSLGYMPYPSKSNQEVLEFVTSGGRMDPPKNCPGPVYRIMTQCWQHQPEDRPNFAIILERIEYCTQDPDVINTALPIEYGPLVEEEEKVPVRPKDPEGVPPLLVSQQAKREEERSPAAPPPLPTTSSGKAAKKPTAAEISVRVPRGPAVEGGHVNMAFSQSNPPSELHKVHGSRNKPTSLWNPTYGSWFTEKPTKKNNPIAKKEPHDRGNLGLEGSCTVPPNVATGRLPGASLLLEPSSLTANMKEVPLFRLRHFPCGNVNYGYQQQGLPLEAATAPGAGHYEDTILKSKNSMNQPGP
Assay: Growth inhibition of BaF3 cells stably transfected with kinase EML4-ALK (MTS)
Format: cell-based
Details: compound concentration 3.3 μM, read-out: cell growth inhibition rate, EML4-ALK
Method: (§1) The specific test method is given as follows:
(§2) 2) Reagent: MTS reaction solution (containing 2 mg/mL of MTS [3-(4,5-dimethylthiazol-2-yl)-5-(3-carboxymethoxyphenyl)-2-(4-sulfophenyl)-2H-tetra zolium, inner Salt]; 100 µg/mL PES ([…])).

Structure (SMILES) | inhibition at 3.3 µM
COc1cc(N2CCC(N(C)C)CC2)ccc1Nc1nc(Nc2ccccc2S(=O)(=O)C(C)C)c2sccc2n1 [IB-31] | 98.1%
COc1ccc(NC(=O)CN(C)C)cc1Nc1nc(Nc2ccccc2S(=O)(=O)C(C)C)c2sccc2n1 [IB-32] | 95%
COc1cc2c(cc1Nc1nc(Nc3ccccc3S(=O)(=O)C(C)C)c3sccc3n1)N(C(=O)CN1CCCC1)CC2 [IB-33] | 98.3%
COc1cc(F)c(NC(=O)CN(C)C)cc1Nc1nc(Nc2ccccc2S(=O)(=O)C(C)C)c2sccc2n1 [IB-35] | 96.8%
COc1cc2c(cc1Nc1nc(Nc3ccccc3S(=O)(=O)C(C)(C)C)c3sccc3n1)N(C(=O)CN(C)C)CC2 [IO-1] | 97.1%
COc1cc(N2CCC(N3CCN(C)CC3)CC2)ccc1Nc1nc(Nc2ccccc2S(=O)(=O)C(C)(C)C)c2sccc2n1 [IO-2] | 96%
COc1cc(N2CCN(C)CC2)ccc1Nc1nc(Nc2ccccc2S(=O)(=O)C(C)(C)C)c2sccc2n1 [IO-3] | 98.7%
COc1cc(N2CCC(N(C)C)CC2)ccc1Nc1nc(Nc2ccccc2S(=O)(=O)C(C)(C)C)c2sccc2n1 [IO-4] | 97%
COc1cc(N2CCC(N3CCN(C)CC3)CC2)ccc1Nc1nc(Nc2ccccc2C(=O)NC(C)C)c2sccc2n1 [IP-1] | 97.4%
COc1cc(N2CCN(C)CC2)ccc1Nc1nc(Nc2ccccc2C(=O)NC(C)C)c2sccc2n1 [IP-2] | 97.3%
COc1cc(N2CCC(N(C)C)CC2)ccc1Nc1nc(Nc2ccccc2C(=O)NC(C)C)c2sccc2n1 [IP-3] | 99.1%
COc1cc2c(cc1Nc1nc(Nc3ccccc3C(=O)N(C)C)c3sccc3n1)N(C(=O)CN(C)C)CC2 [IQ-1] | 96.9%
COc1cc2c(cc1Nc1nc(Nc3ccccc3P(=O)(C(C)C)C(C)C)c3sccc3n1)N(C(=O)CN(C)C)CC2 [IR-1] | 97.5%
COc1cc(N2CCC(N3CCCC3)CC2)ccc1Nc1nc(Nc2ccccc2P(=O)(C(C)C)C(C)C)c2sccc2n1 [IR-2] | 96.3%
COc1cc(N2CCN(C)CC2)ccc1Nc1nc(Nc2ccccc2P(=O)(C(C)C)C(C)C)c2sccc2n1 [IR-3] | 99.2%

Target: T2, NPM-ALK-BaF3 (Homo sapiens, UniProt Q9UM73)
T2 construct: NPM (nuclear phosphoprotein / nucleophosmin, NPM1, P06748) fusion partner; expressed in transfected cells; host or cells: BaF3; the other entry of the earlier key: NPM1 (P06748, Nucleophosmin)
T2 sequence (Q9UM73 with tags, fused parts or gaps): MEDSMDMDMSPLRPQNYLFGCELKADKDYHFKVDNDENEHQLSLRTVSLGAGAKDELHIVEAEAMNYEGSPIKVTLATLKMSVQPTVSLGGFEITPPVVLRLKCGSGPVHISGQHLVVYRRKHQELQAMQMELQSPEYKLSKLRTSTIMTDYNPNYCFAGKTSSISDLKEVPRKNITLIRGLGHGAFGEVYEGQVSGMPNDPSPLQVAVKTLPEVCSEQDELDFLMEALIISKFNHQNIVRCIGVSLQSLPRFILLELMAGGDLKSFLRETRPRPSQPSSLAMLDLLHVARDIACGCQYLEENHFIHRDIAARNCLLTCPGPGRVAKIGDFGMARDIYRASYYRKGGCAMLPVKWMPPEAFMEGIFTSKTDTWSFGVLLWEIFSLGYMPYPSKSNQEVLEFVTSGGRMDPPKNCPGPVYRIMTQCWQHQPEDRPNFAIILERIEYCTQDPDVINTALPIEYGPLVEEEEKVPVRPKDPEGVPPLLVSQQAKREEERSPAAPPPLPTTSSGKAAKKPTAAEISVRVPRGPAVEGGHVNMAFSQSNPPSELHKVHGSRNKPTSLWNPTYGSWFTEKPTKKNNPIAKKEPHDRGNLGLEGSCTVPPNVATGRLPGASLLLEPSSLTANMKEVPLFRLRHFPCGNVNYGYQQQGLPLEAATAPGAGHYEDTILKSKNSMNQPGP
Assay: Growth inhibition of BaF3 cells stably transfected with kinase NPM-ALK (MTS)
Format: cell-based
Details: compound concentration 3.3 μM, read-out: cell growth inhibition rate, NPM-ALK
Method: as §1, §2

Structure (SMILES) | inhibition at 3.3 µM
COc1cc(C2CCN(C)CC2)c(C)cc1Nc1nc(Nc2ccccc2S(C)(=O)=O)c2sccc2n1 [IA-5] | 90.9%
CC(C)S(=O)(=O)c1ccccc1Nc1nc(Nc2ccc(N3CCN(C)CC3)cc2)nc2ccsc12 [IB-3] | 94.2%
CC(C)S(=O)(=O)c1ccccc1Nc1nc(Nc2ccc(N3CCC(O)CC3)cc2)nc2ccsc12 [IB-4] | 96%
COc1cc(C2CCN(C)CC2)c(C)cc1Nc1nc(Nc2ccccc2S(=O)(=O)C(C)C)c2sccc2n1 [IB-5] | 88.9%
CC(C)S(=O)(=O)c1ccccc1Nc1nc(Nc2ccc(N3CCC(N4CCN(C)CC4)CC3)cc2)nc2ccsc12 [IB-6] | 93.2%
COc1cc(N2CCC(N3CCCC3)CC2)ccc1Nc1nc(Nc2ccccc2S(=O)(=O)C(C)C)c2sccc2n1 [IB-7] | 92.8%
COc1cc(N2CCN(C)CC2)ccc1Nc1nc(Nc2ccccc2S(=O)(=O)C(C)C)c2sccc2n1 [IB-8] | 83.7%
Cc1cc(Nc2nc(Nc3ccccc3S(=O)(=O)C(C)C)c3sccc3n2)c(OC(C)C)cc1C1CCN(C)CC1 [IB-9] | 88.5%
CC(C)S(=O)(=O)c1ccccc1Nc1nc(Nc2ccc(S(=O)(=O)N3CCC(O)CC3)cc2)nc2ccsc12 [IB-11] | 60.9%
CC(C)S(=O)(=O)c1ccccc1Nc1nc(Nc2ccc(N3CCC(O)CC3)cn2)nc2ccsc12 [IB-12] | 55.9%
CCOc1cc(C(=O)N2CCC(N3CCN(C)CC3)CC2)ccc1Nc1nc(Nc2ccccc2S(=O)(=O)C(C)C)c2sccc2n1 [IB-13] | 90.3%
CC(C)S(=O)(=O)c1ccccc1Nc1nc(Nc2ccc(N3CCOCC3)cc2)nc2ccsc12 [IB-15] | 83.3%
CC(C)S(=O)(=O)c1ccccc1Nc1nc(Nc2ccc(N3CCOCC3)nc2)nc2ccsc12 [IB-16] | 77.5%
CCOc1cc(N2CCC(O)CC2)ccc1Nc1nc(Nc2ccccc2S(=O)(=O)C(C)C)c2sccc2n1 [IB-17] | 86%
CC(C)Oc1cc(N2CCC(O)CC2)ccc1Nc1nc(Nc2ccccc2S(=O)(=O)C(C)C)c2sccc2n1 [IB-18] | 66.1%
COc1cc(N2CCC(O)CC2)ccc1Nc1nc(Nc2ccccc2S(=O)(=O)C(C)C)c2sccc2n1 [IB-19] | 84.9%
CC(C)S(=O)(=O)c1ccccc1Nc1nc(Nc2ccc(OCc3ccccn3)cc2)nc2ccsc12 [IB-20] | 66%
CC(C)S(=O)(=O)c1ccccc1Nc1nc(Nc2ccc(S(=O)(=O)N3CCN(C)CC3)cc2)nc2ccsc12 [IB-21] | 72.1%
COc1cc(C(=O)N2CCC(N3CCN(C)CC3)CC2)ccc1Nc1nc(Nc2ccccc2S(=O)(=O)C(C)C)c2sccc2n1 [IB-22] | 87.3%
CC(C)S(=O)(=O)c1ccccc1Nc1nc(Nc2ccc(N3CCC(O)CC3)nc2)nc2ccsc12 [IB-23] | 96.7%
CC(C)S(=O)(=O)c1ccccc1Nc1nc(Nc2ccc(N3CCN(C)CC3)cn2)nc2ccsc12 [IB-24] | 97.4%
CC(C)S(=O)(=O)c1ccccc1Nc1nc(Nc2ccc(N3CCN(C(=O)OC(C)(C)C)CC3)cc2)nc2ccsc12 [IB-25] | 61.4%
CC(C)S(=O)(=O)c1ccccc1Nc1nc(Nc2ccc(C(=O)N3CCN(C)CC3)cc2)nc2ccsc12 [IB-26] | 97.3%
CCOc1cc(N2CCN(C)CC2)ccc1Nc1nc(Nc2ccccc2S(=O)(=O)C(C)C)c2sccc2n1 [IB-28] | 96.5%
CC(C)S(=O)(=O)c1ccccc1Nc1nc(Nc2ccc(C(=O)N3CCC(N4CCN(C)CC4)CC3)cc2)nc2ccsc12 [IB-29] | 97.5%
COc1cc2c(cc1Nc1nc(Nc3cn(C)nc3S(=O)(=O)C(C)C)c3sccc3n1)N(C(=O)CN(C)C)CC2 [IC-1] | 82.4%
COc1cc(N2CCC(N3CCN(C)CC3)CC2)ccc1Nc1nc(Nc2cn(C)nc2S(=O)(=O)C(C)C)c2sccc2n1 [IC-2] | 55%

Structure (SMILES) | inhibition at 3.3 µM
CC(C)S(=O)(=O)c1nn(C)cc1Nc1nc(Nc2ccc(N3CCN(C)CC3)cc2)nc2ccsc12 [IC-3] | 46.5%
CC(C)S(=O)(=O)c1nn(C)cc1Nc1nc(Nc2ccc(N3CCC(O)CC3)cc2)nc2ccsc12 [IC-4] | 53.2%
COC(=O)c1cccc(Nc2nc(Nc3cc4c(cc3OC)CCN4C(=O)CN(C)C)nc3ccsc23)c1 [ID-1] | 73.4%
COC(=O)c1cccc(Nc2nc(Nc3ccc(N4CCN(C)CC4)cc3OC)nc3ccsc23)c1 [ID-2] | 44.7%
COc1cc2c(cc1Nc1nc(Nc3cccc(NS(C)(=O)=O)c3)c3sccc3n1)N(C(=O)CN(C)C)CC2 [IG-1] | 22.2%
COc1cc(N2CCC(N3CCN(C)CC3)CC2)ccc1Nc1nc(Nc2cccc(NS(C)(=O)=O)c2)c2sccc2n1 [IG-2] | 17.4%
CS(=O)(=O)Nc1cccc(Nc2nc(Nc3ccc(N4CCC(O)CC4)cc3)nc3ccsc23)c1 [IG-3] | 21.6%
CS(=O)(=O)Nc1cccc(Nc2nc(Nc3ccc(S(N)(=O)=O)cc3)nc3ccsc23)c1 [IG-6] | 3.07%
COc1cc2c(cc1Nc1nc(Nc3ccccc3NS(C)(=O)=O)c3sccc3n1)N(C(=O)CN(C)C)CC2 [IH-1] | 12.7%
COc1cc(N2CCC(N3CCN(C)CC3)CC2)ccc1Nc1nc(Nc2ccccc2NS(C)(=O)=O)c2sccc2n1 [IH-2] | 85.1%
COc1cc(N2CCN(C)CC2)ccc1Nc1nc(Nc2ccccc2NS(C)(=O)=O)c2sccc2n1 [IH-3] | 79.2%
CS(=O)(=O)Nc1ccccc1Nc1nc(Nc2ccc(N3CCC(O)CC3)cc2)nc2ccsc12 [IH-4] | 26.7%
CS(=O)(=O)Nc1ccccc1Nc1nc(Nc2ccc(S(N)(=O)=O)cc2)nc2ccsc12 [IH-7] | 15.1%
CNC(=O)c1ccccc1Nc1nc(Nc2ccc(N3CCC(N4CCN(C)CC4)CC3)cc2OC)nc2ccsc12 [II-1] | 46.3%
CNC(=O)c1ccccc1Nc1nc(Nc2ccc(N3CCN(C)CC3)cc2)nc2ccsc12 [II-2] | 28.1%
CNC(=O)c1ccccc1Nc1nc(Nc2ccc(N3CCN(C)CC3)cc2OC)nc2ccsc12 [II-3] | 84.1%
CCOc1cc(N2CCN(C)CC2)ccc1Nc1nc(Nc2ccccc2C(=O)NC)c2sccc2n1 [II-4] | 46.6%
CNC(=O)c1ccccc1Nc1nc(Nc2ccc(N3CCC(O)CC3)cc2)nc2ccsc12 [II-5] | 31.6%
COc1cc2c(cc1Nc1nc(NCc3ccccc3S(C)(=O)=O)c3sccc3n1)N(C(=O)CN(C)C)CC2 [IL-1] | 73.7%
COc1cc(N2CCC(N3CCN(C)CC3)CC2)ccc1Nc1nc(NCc2ccccc2S(C)(=O)=O)c2sccc2n1 [IL-2] | 54.8%
CN1CCN(c2ccc(Nc3nc(NCc4ccccc4S(C)(=O)=O)c4sccc4n3)cc2)CC1 [IL-3] | 56.8%
CS(=O)(=O)c1ccccc1CNc1nc(Nc2ccc(N3CCC(O)CC3)cc2)nc2ccsc12 [IL-4] | 45.8%
COc1cc2c(cc1Nc1nc(NCc3ccccc3S(=O)(=O)C(C)C)c3sccc3n1)N(C(=O)CN(C)C)CC2 [IM-1] | 94.2%
COc1cc(N2CCC(N3CCN(C)CC3)CC2)ccc1Nc1nc(NCc2ccccc2S(=O)(=O)C(C)C)c2sccc2n1 [IM-2] | 20.6%
CC(C)S(=O)(=O)c1ccccc1CNc1nc(Nc2ccc(N3CCN(C)CC3)cc2)nc2ccsc12 [IM-3] | 52.5%
CC(C)S(=O)(=O)c1ccccc1CNc1nc(Nc2ccc(N3CCC(O)CC3)cc2)nc2ccsc12 [IM-4] | 53.1%
